Results on 32 compounds are retold here after US8614327B2 (Vertex Pharmaceuticals Incorporated, priority 2004, dated 2013).

The experiment concerns the target T1, ΔF508-CFTR (Homo sapiens, UniProt P13569, DEL508-508).
T1 construct: expressed in transfected cells
In words: Membrane potential optical (FRET/VIPR) assay, identification of potentiator compounds. The format is cell-based. The conditions noted are these: Table 3, assay not given; for % Activity: relative efficacy. An outline of the steps: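 Double-addition potentiator screen: compound delivered in gluconate-substituted Cl^--free medium, membrane potential followed via CC2-DMPE/DiSBAC2(3) FRET on VIPR. Cells were ΔF508-CFTR-expressing NIH3T3 mouse fibroblasts, held 2 h at 37° C. then 24 h at 27° C. before assay.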

A value given as a limit tells only on which side of the number the result lay.

T1 sequence (P13569 with tags, fused parts or gaps DEL508-508): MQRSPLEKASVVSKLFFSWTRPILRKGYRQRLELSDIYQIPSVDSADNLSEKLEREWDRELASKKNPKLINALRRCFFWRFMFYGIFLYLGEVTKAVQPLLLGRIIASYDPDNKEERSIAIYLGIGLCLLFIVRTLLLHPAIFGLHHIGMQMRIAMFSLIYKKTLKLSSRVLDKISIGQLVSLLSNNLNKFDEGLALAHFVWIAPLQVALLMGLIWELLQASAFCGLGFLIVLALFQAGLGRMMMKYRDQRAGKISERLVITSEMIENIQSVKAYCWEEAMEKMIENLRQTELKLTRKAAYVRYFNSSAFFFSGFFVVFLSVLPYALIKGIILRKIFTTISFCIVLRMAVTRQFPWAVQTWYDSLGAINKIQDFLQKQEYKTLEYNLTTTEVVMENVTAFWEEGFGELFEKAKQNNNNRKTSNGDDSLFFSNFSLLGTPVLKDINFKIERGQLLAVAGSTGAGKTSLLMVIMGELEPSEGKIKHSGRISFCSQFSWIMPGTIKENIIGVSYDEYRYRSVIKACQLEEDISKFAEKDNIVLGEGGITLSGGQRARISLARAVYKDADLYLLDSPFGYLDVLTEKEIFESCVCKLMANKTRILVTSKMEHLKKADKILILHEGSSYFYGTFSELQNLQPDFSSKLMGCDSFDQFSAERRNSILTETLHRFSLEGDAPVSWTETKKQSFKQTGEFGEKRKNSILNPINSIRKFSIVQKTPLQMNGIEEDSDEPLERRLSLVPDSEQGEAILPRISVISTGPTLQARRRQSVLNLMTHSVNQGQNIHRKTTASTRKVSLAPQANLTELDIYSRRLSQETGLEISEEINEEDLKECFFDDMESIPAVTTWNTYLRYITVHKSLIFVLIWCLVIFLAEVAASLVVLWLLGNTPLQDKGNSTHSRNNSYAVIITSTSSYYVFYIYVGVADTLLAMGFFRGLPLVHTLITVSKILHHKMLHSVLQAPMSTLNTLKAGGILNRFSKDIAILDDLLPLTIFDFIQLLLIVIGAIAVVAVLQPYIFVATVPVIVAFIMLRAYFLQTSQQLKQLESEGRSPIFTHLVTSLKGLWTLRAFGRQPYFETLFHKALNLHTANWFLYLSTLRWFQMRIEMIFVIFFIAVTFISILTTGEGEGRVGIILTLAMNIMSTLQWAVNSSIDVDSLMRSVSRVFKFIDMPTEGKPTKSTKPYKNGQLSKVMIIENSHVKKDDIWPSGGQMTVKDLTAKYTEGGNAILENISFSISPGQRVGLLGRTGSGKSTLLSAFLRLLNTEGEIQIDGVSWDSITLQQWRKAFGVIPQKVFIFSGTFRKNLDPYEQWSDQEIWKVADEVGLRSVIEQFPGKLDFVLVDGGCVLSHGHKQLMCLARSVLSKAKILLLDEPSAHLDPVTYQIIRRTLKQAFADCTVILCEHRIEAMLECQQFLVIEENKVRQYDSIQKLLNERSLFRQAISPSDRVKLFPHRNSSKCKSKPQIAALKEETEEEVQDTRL

By EC50 is commonly meant the concentration at which the effect is half-maximal. As for `COc1ccc(C(C)C)cc1-c1ccccc1NC(=O)c1c[nH]c2ccccc2c1=O` [Compound 59, N-[2-(5-isopropyl-2-methoxy-phenyl)phenyl]-4-oxo-1H-quinoline-3-carboxamide], the half-maximal effective concentration (EC50) is less than 10 µM and the “% Activity” value is given as “+++ (>100%)”. The matching figures for `O=C1CSc2ccc(NC(=O)c3c[nH]c4ccccc4c3=O)cc2N1` [Compound 262, 1,4-dihydro-N-(3,4-dihydro-3-oxo-2H-benzo[b][1,4]thiazin-6-yl)-4-oxoquinoline-3-carboxamide]: less than 10 µM and “++ (between 25% to 100%)”. As to `CCCc1ccc(N)cc1NC(=O)c1c[nH]c2ccccc2c1=O` [Compound 41, N-(5-amino-2-propyl-phenyl)-4-oxo-1H-quinoline-3-carboxamide], the “% Activity” value was “++ (between 25% to 100%)”. Regarding `COC(=O)[C@]1(C)CCCN1c1ccc(NC(=O)c2c[nH]c3ccccc3c2=O)c(C(F)(F)F)c1` [Compound 631, (S)-methyl 2-methyl-1-(4-(4-oxo-1,4-dihydroquinoline-3-carboxamido)-3-(trifluoromethyl)phenyl)pyrrolidine-2-carboxylate], the EC50 is less than 10 µM and the “% Activity” value is “+++ (>100%)”. As for `CC(CO)(CO)c1ccc(NC(=O)c2c[nH]c3ccccc3c2=O)cc1` [Compound 590, N-[4-[2-hydroxy-1-(hydroxymethyl)-1-methyl-ethyl]phenyl]-4-oxo-1H-quinoline-3-carboxamide], the EC50 is less than 10 µM and the “% Activity” value is “+ (<25%)”. The matching figures for `O=C(Nc1ccccc1-c1cc2ccccc2s1)c1c[nH]c2ccccc2c1=O` [Compound 172, N-(2-(benzo[b]thiophen-2-yl)phenyl)-1,4-dihydro-4-oxoquinoline-3-carboxamide]: less than 10 µM and “++ (between 25% to 100%)”. `N#Cc1cccc(-c2ccccc2NC(=O)c2c[nH]c3ccccc3c2=O)c1` [Compound 83, N-[2-(3-cyanophenyl)phenyl]-4-oxo-1H-quinoline-3-carboxamide]: the EC50 is less than 10 µM and the “% Activity” value was “++ (between 25% to 100%)”. On the same counts, the results for `Cc1cccc2[nH]cc(C(=O)Nc3cc4[nH]ccc4cc3C(F)(F)F)c(=O)c12` [Compound 661, 5-methyl-4-oxo-N-[5-(trifluoromethyl)-1H-indol-6-yl]-1H-quinoline-3-carboxamide] are less than 10 µM and “++ (between 25% to 100%)”. On the same counts, the results for `Cc1cccc(NC(=O)c2c[nH]c3ccccc3c2=O)c1` [Compound 449, N-(m-tolyl)-4-oxo-1H-quinoline-3-carboxamide] are less than 10 µM and “++ (between 25% to 100%)”. For `CC(C)(C)OC(=O)NCCc1c[nH]c2cc(NC(=O)c3c[nH]c4ccccc4c3=O)ccc12` [Compound 352, 2-[6-[(4-oxo-1H-quinolin-3-yl)carbonylamino]-1H-indol-3-yl]ethylaminoformic acid tert-butyl ester], the EC50 is less than 10 µM and the “% Activity” value is on record as “++ (between 25% to 100%)”. On to `CCc1ccc(N)cc1NC(=O)c1c[nH]c2ccccc2c1=O` [Compound 282, N-(5-amino-2-ethyl-phenyl)-4-oxo-1H-quinoline-3-carboxamide], for which the “% Activity” value is “++ (between 25% to 100%)”. For `CC(C)(C)c1cc(NC(=O)c2c[nH]c3ccccc3c2=O)c(O)c(C(C)(C)C)c1` [Compound 136, N-(2-hydroxy-3,5-ditert-butyl-phenyl)-4-oxo-1H-quinoline-3-carboxamide], the half-maximal effective concentration (EC50) was less than 10 µM and the “% Activity” value is “++ (between 25% to 100%)”. In the case of `CCOC(=O)NC1CCCc2ccc(NC(=O)c3c[nH]c4ccccc4c3=O)cc21` (stereo not shown) [Compound 482, [7-[(4-Oxo-1H-quinolin-3-yl)carbonylamino]tetralin-1-yl]aminoformic acid ethyl ester], the 50% effective concentration (EC50) fell in the range of 10 to 25 µM and the “% Activity” value is on record as “++ (between 25% to 100%)”.

As for `O=C(Nc1ccccc1-c1ccccn1)c1c[nH]c2ccccc2c1=O` [Compound 692, 4-oxo-N-[2-(2-pyridyl)phenyl]-1H-quinoline-3-carboxamide], the EC50 was less than 10 µM and the “% Activity” value is “++ (between 25% to 100%)”. For the compound `COc1nc(NC(=O)c2c[nH]c3ccccc3c2=O)ccc1C(F)(F)F` [Compound 571, N-[6-methoxy-5-(trifluoromethyl)-2-pyridyl]-4-oxo-1H-quinoline-3-carboxamide], the half-maximal effective concentration (EC50) is less than 10 µM and the “% Activity” value is listed as “+ (<25%)”. On the same counts, the results for `O=C(Nc1ccc2[nH]nnc2c1)c1c[nH]c2ccccc2c1=O` [Compound 256, N-(1H-benzotriazol-5-yl)-4-oxo-1H-quinoline-3-carboxamide] are 25 to 60 µM and “+ (<25%)”. On the same counts, the results for `O=C(Nc1ccccc1-c1ccco1)c1c[nH]c2ccccc2c1=O` [Compound 115, N-[2-(2-furyl)phenyl]-4-oxo-1H-quinoline-3-carboxamide] are less than 10 µM and “++ (between 25% to 100%)”. On the same counts, the results for `COC(=O)c1ccc(-c2ccccc2NC(=O)c2c[nH]c3ccccc3c2=O)cc1` [Compound 166, 4-[2-[(4-oxo-1H-quinolin-3-yl)carbonylamino]phenyl]benzoic acid methyl ester] are less than 10 µM and “++ (between 25% to 100%)”.

As to `CCOc1ccccc1-c1ccc(CNC(=O)OC(C)(C)C)cc1NC(=O)c1c[nH]c2ccccc2c1=O` [Compound 304, {2′-Ethoxy-2-[(4-oxo-1,4-dihydroquinoline-3-carbonyl)-amino]-biphenyl-4-ylmethyl}-carbamic acid tert-butyl ester], the EC50 was less than 10 µM and the “% Activity” value was “++ (between 25% to 100%)”.

For the compound `O=C(Nc1ccccc1-c1cc(Cl)cc(Cl)c1)c1c[nH]c2ccccc2c1=O` [Compound 367, N-[2-(3,5-dichlorophenyl)phenyl]-4-oxo-1H-quinoline-3-carboxamide], the 50% effective concentration (EC50) was less than 10 µM and the “% Activity” value is reported as “++ (between 25% to 100%)”. The matching figures for `O=C(Nc1cc2[nH]ccc2cc1C(F)(F)F)c1c[nH]c2ccccc2c1=O` [Compound 234, 4-oxo-N-[5-(trifluoromethyl)-1H-indol-6-yl]-1H-quinoline-3-carboxamide]: less than 10 µM and “++ (between 25% to 100%)”. On the same counts, the results for `CCC(C)c1ccccc1NC(=O)c1c[nH]c2ccccc2c1=O` (stereo not shown) [Compound 142, 4-oxo-N-(2-sec-butylphenyl)-1H-quinoline-3-carboxamide] are less than 10 µM and “++ (between 25% to 100%)”. On the same counts, the results for `O=C(Nc1ccc(-c2ccccc2CNC(=O)C(F)(F)F)cc1)c1c[nH]c2ccccc2c1=O` [Compound 224, 4-oxo-N-[4-[2-[(2,2,2-trifluoroacetyl)aminomethyl]phenyl]phenyl]-1H-quinoline-3-carboxamide] are less than 10 µM and “++ (between 25% to 100%)”. In the case of `CC(=O)n1ccc2ccc(NC(=O)c3c[nH]c4ccccc4c3=O)cc21` [Compound 187, N-(1-acetyl-1H-indol-6-yl)-4-oxo-1H-quinoline-3-carboxamide], the EC50 is less than 10 µM and the “% Activity” value is listed as “++ (between 25% to 100%)”. On the same counts, the results for `CC(C)(C)c1cccc(NC(=O)c2c[nH]c3ccccc3c2=O)c1` [Compound 602, 4-oxo-N-(3-tert-butylphenyl)-1H-quinoline-3-carboxamide] are less than 10 µM and “++ (between 25% to 100%)”. On the same counts, the results for `COc1ccc2[nH]cc(C(=O)Nc3ccc(N4CCC[C@@H]4C)cc3C(F)(F)F)c(=O)c2c1` [Compound 601, (S)-6-methoxy-N-(4-(2-methylpyrrolidin-1-yl)-2-(trifluoromethyl)phenyl)-4-oxo-1,4-dihydroquinoline-3-carboxamide] are less than 10 µM and “++ (between 25% to 100%)”. On the same counts, the results for `O=C(Nc1ccc(C(F)(F)F)cc1Cl)c1c[nH]c2ccc(F)cc2c1=O` [Compound 636, N-[2-chloro-4-(trifluoromethyl)phenyl]-6-fluoro-4-oxo-1H-quinoline-3-carboxamide] are less than 10 µM and “+ (<25%)”. As to `CCOc1cccc(-c2cc(C(C)(C)C)c(O)cc2NC(=O)c2c[nH]c3ccccc3c2=O)c1` [Compound 43, N-[2-(3-ethoxyphenyl)-5-hydroxy-4-tert-butyl-phenyl]-4-oxo-1H-quinoline-3-carboxamide], the EC50 is less than 10 µM and the “% Activity” value was “++ (between 25% to 100%)”. The matching figures for `CC(C)(C)CC(=O)Nc1ccc(C(C)(C)C)c(NC(=O)c2c[nH]c3ccccc3c2=O)c1` [Compound 196, N-[5-(3,3-dimethylbutanoylamino)-2-tert-butyl-phenyl]-4-oxo-1H-quinoline-3-carboxamide]: less than 10 µM and “++ (between 25% to 100%)”. On the same counts, the results for `COc1ccc2[nH]cc(C(=O)Nc3ccc(N4CCC(C)(C)C4)cc3C(F)(F)F)c(=O)c2c1` [Compound 504, N-[4-(3,3-dimethylpyrrolidin-1-yl)-2-(trifluoromethyl)phenyl]-6-methoxy-4-oxo-1H-quinoline-3-carboxamide] are less than 10 µM and “++ (between 25% to 100%)”. Turning to `CC(C)(C)c1c[nH]c2cc(NC(=O)c3c[nH]c4ccccc4c3=O)c(C(F)(F)F)cc12` [Compound 508, 4-oxo-N-[3-tert-butyl-5-(trifluoromethyl)-1H-indol-6-yl]-1H-quinoline-3-carboxamide], the “% Activity” value was “++ (between 25% to 100%)”. For `O=C(Nc1ccccc1-c1ccc(C(F)(F)F)cc1)c1c[nH]c2ccccc2c1=O` [Compound 366, 4-oxo-N-[2-[4-(trifluoromethyl)phenyl]phenyl]-1H-quinoline-3-carboxamide], the EC50 is less than 10 µM and the “% Activity” value is on record as “++ (between 25% to 100%)”.
